Tested on: peripheral CD8+ T cells
Design: species or system human
Conditions: in vivo

Row | Sequence | multimer+ of CD8+
1 | QPTESIVRF | 0.17
2 | QYIKWPWYI | 1.27
3 | YLQPRTFLL | 3.09

Tested on: CD8+ T cells of HLA-A02:01-positive human donors
Type: cell-based
Conditions: not given

Row | Sequence | No. Donors with pMHC specific T tells
4 | KLDDKDPNF | 2
5 | YLGTGPEAGL | 2

Same assay, conditions: PBMCs from three HLA-A02:01-positive human donors; pMHC multimer positive CD8+ T cells

Row | Sequence | No. Donors with pMHC specific T tells
6 | FGDDTVIEV | 3
7 | FLFLTWICL | 2
8 | FLLPSLATV | 2
9 | GLTVLPPLL | 1
10 | KLNDLCFTNV | 2
11 | LLLDRLNQL | 1

Tested on: MHC (HLA-I and HLA-II alleles)
Sequence (P61769 21-119): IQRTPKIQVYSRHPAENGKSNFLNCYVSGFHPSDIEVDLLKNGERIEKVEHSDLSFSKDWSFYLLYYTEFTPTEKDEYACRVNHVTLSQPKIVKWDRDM
Design: key: +: previously assayed and confirmed as HLA-A02:01 binders in ViPR
Conditions: cited from earlier work

Row | Sequence | Confirmed in VIPR
12 | ILLNKHIDA | +
13 | LLLDRLNQL | +
14 | NLNESLIDL | +

— patent publication US20260207734A1 (priority 2021, published 2026)
